Source: patent US10064861B2, “Macrocyclic pyridazinone derivatives” (Merck Patent GmbH, priority 2013, dated 2018)

Assays:
IRAK1 = IRAK1 (Homo sapiens (Human), UniProt P51617); test: IRAK1 enzymatic assay; assay type: biochemical; conditions: His-TEV-IRAK-1, ATP 1 μM, 3 hours at 30° C.
Method: IRAK1 is a human purified recombinant enzyme (His-TEV-IRAK1 (194-712)) In this assay, IRAK-1 hydrolyses ATP and autophosphorylates.
Measurement of IRAK-1 inhibition is performed in streptavidin coated 384 well FlashPlate (PerkinElmer #SMP410A).
His-TEV-IRAK-1 (15 ng/well), ATP (1 μM, [^33P]ATP 0.25 μCi/well) and compounds in DMSO (range of concentrations from 20 μM to 1 nM) or controls (2% DMSO) are incubated for 3 hours at 30° C. in assay buffer: Hepes pH 7.0 50 mM, Fatty acid-free BSA 0.1%, Dithiothreitol DTT 2 mM, MgCl2 10 mM, EGTA 0.5 mM, Triton-X-100 0.01%. Kinase reaction is stopped by addition of EDTA. Supernatant is discarded, plates are washed three times with 150 mM NaCl and radioactivity is then measured in a Microbeta Trilux reader.

IRAK4 = IRAK4 (Homo sapiens (Human), UniProt Q9NWZ3); test: IRAK4 enzymatic assay; assay type: biochemical; conditions: His-TEV-IRAK4, ATP 2 μM, STK1-biotin peptide 300 nM, 3 hours at 30° C.
IRAK4, sequence (Q9NWZ3 whole entry): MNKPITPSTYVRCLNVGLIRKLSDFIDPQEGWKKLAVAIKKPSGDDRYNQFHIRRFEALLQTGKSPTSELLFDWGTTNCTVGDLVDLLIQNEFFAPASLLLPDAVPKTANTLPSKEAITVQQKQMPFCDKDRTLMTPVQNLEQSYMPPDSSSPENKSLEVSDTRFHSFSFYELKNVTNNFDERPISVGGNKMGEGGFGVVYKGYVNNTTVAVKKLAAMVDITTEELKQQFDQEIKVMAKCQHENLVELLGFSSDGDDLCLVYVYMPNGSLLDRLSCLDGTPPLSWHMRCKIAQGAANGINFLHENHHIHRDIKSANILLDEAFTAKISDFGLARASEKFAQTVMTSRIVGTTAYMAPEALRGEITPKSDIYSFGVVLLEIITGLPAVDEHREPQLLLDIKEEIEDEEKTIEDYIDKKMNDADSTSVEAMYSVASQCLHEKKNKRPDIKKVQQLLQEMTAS
Method: IRAK4 is a human purified recombinant enzyme (His-TEV-IRAK1 (194-712) IRAK4 hydrolyses ATP, autophosphorylates and phosphorylates a Serine/Threonine generic peptidic substrate (STK: 61ST1BLC from CisBio International based in Bagnols/Cèze FR).
Measurement of IRAK-4 inhibition is performed in streptavidin coated 384 well FlashPlate (PerkinElmer #SMP410A). His-TEV-IRAK4 (20 ng/well), ATP (2 μM, [^33P]ATP 0.25 μCi/well), STK1-biotin peptide (300 nM) and compounds in DMSO (range of concentrations from 20 μM to 1 nM) or controls (2% DMSO) are incubated for 3 hours at 30° C. in assay buffer: Hepes pH 7.0 50 mM, Fatty acid-free BSA 0.1%, Dithiothreitol DTT 2 mM, MgCl2 10 mM, EGTA 0.5 mM, Tween-20 0.01%, MnCl2 5 mM.
Kinase reaction is stopped by addition of EDTA. Supernatant is discarded, plates are washed three times with 150 mM NaCl and radioactivity is then measured in a Microbeta Trilux reader.

[1] = tested on: TLR7 induced IL-6 secretion in human mononuclear cells (PBMC's); test: TLR7 induced IL-6 in human PBMC's; assay type: cell-based; conditions: TLR7 specific ligand 2 uM overnight, IL-6 AlphaLISA
Method: TLR7 Induced IL-6 in Human PBMC's
Human PBMC assay is used as one of the functional assay to monitor the activity of IRAK1 and IRAK4 small molecule inhibitors on TLR7 induced IL-6 secretion in human mononuclear cells (PBMC's). Human PBMCs are prepared from buffy coats (whole blood enriched with leukocytes and platelets) obtained from healthy volunteers used either fresh or frozen are plated in assay media (RPMI+2% P/S/L-glu+10% HI-FBS) and pre-treated with compounds in DMSO/media (range of concentrations from 25 μM to 0.4 nM) or controls (0.25% DMSO) for 30 minutes at 37° C. in assay media. Following pre-treatment with IRAK1 and IRAK4 inhibitors, PBMC's are stimulated with TLR7 specific ligand (2 uM) overnight (16-18 hrs) at 37° C. After incubation supernatant is transferred to 384 well PE AlphaPlate-384 (6005350) and IL-6 is quantified using Perkin Elmer IL-6 Alpha LISA kit (AL223C). Plates are read on an Envision® plate reader with Alpha Technology®.

IRAK1, sequence (P51617 194-712): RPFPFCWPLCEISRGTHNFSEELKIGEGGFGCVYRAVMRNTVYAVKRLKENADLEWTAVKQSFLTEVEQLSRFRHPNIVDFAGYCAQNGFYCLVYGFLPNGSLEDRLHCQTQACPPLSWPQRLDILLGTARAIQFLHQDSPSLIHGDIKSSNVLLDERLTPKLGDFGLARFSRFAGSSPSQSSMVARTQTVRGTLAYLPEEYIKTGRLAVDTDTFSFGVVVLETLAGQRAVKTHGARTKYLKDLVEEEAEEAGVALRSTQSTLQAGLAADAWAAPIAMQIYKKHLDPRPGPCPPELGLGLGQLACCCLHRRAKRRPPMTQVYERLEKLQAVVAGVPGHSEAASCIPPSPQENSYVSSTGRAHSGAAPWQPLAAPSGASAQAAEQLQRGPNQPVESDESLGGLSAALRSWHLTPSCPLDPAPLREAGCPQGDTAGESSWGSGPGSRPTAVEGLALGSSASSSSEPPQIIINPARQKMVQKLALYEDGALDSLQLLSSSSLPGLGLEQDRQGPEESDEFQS

Compound	IC50 (IRAK1) [nM]	IC50 (IRAK4) [nM]	IC50 [1] [nM]
O=C1Nc2nc3ccccc3n2C[C@H](O)[C@@H]2CCCN(C2)c2ccc(=O)n(n2)Cc2cccc1c2 (stereo in doubt) [Compound 32a, 25-hydroxy-1,6,14,16,23,32-hexaazahexacyclo[24.3.1.1^2,6.1^8,12.0^15,23.0^17,22]dotriaconta-2(32),3,8(31),9,11,15,17(22),18,20-nonaene-5,13-dione]	< 100	< 100	100 to 1000
O=C1Nc2nc3ccccc3n2C[C@H](O)[C@H]2CCCN(C2)c2ccc(=O)n(n2)Cc2cccc1c2 (stereo in doubt) [Compound 32b, 25-hydroxy-1,6,14,16,23,32-hexaazahexacyclo[24.3.1.1^2,6.1^8,12.0^15,23.0^17,22]dotriaconta-2(32),3,8(31),9,11,15,17(22),18,20-nonaene-5,13-dione]	< 100	< 100	100 to 1000
Cc1cc(=O)n2nc1-c1cccc(c1)Cn1c(nc3ccccc31)NC(=O)c1cccc(c1)C2 [Compound 4, 28-Methyl-8,15,17,25,29-pentaazahexacyclo[23.3.1.1^2,61^19,230^8,160^9,14]hentriaconta-1(29),2(31),3,5,9(14),10,12,15,19(30),20,22,27-dodecaene-18,26-dione]	< 100	100 to 1000	–
O=C1Nc2nc3cc(F)c(F)cc3n2Cc2cccc(c2)-c2ccc(=O)n(n2)Cc2cccc1c2 [Compound 6, 11,12-difluoro-8,15,17,25,29-pentaazahexacyclo[23.3.1.1^2,6.1^9,23.0^8,16.0^9,14]hentriaconta-1(29),2(31),3,5,9(14),10,12,15,19(30),20,22,27-dodecaene-18,26-dione]	< 100	100 to 1000	–
O=C1Nc2nc3ccccc3n2Cc2cncc(c2)-c2ccc(=O)n(n2)Cc2cccc1c2 [Compound 7, 4,8,15,17,25,29-hexaazahexacyclo[23.3.1.1^2,6.1^19,23.0^8,16.0^9,14]hentriaconta-1(29),2(31),3,5,9(14),10,12,15,19(30),20,22,27-dodecaene-18,26-dione]	–	< 100	< 100
O=C1Nc2nc3ccccc3n2CCOc2cccc(c2)-c2ccc(=O)n(n2)Cc2cccc1c2 [Compound 9, 26-oxa-6,14,16,23,33-pentaazahexacyclo[25.3.1.12,6,1^8,12}0^15,23.0^17,22]tritriaconta-1(31),2(33),3,8,10,12(32),15,17,19,21,27,29-dodecaene-5,13-dione]	< 100	100 to 1000	–
O=C1Nc2nc3ccccc3n2Cc2ccc(F)c(c2)-c2ccc(=O)n(n2)Cc2cccc1c2 [Compound 10, 3-Fluoro-8,15,17,25,29-pentaazahexacyclo[23.3.1.1^2,61^19,230^8,160^9,14]hentriaconta-1(29),2(31),3,5,9(14),10,12,15,19(30),20,22,27-dodecaene-18,26-dione]	< 100	100 to 1000	–
Cc1cc(=O)n2nc1-c1cccc(c1)CCn1c(nc3ccccc31)NC(=O)c1cccc(c1)C2 [Compound 11, 3-methyl-6,14,16,23,32-pentaazahexacyclo[24.3.1.1^2,6.1^8,12.0^15,23.017,22]dotriaconta-1(30),2(32),3,8,10,12(31),15,17,19,21,26,28-dodecaene-5,13-dione]	< 100	< 100	–
O=C1Nc2nc3ccccc3n2Cc2ccc(Cl)c(c2)-c2ccc(=O)n(n2)Cc2cccc1c2 [Compound 13, 3-chloro-8,15,17,25,29-pentaazahexacyclo[23.3.1.1^2,6.1^19,23.0^8,16.0^9,14]hentriaconta-1(29),2(31),3,5,9(14),10,12,15,19(30),20,22,27-dodecaene-18,26-dione]	< 100	100 to 1000	–
O=C1Nc2nc3ccccc3n2CCn2cc(cn2)-c2ccc(=O)n(n2)Cc2cccc1c2 [Compound 14, 4,6,8,15,17,25,29-heptaazahexacyclo[23.3.1.12,5.119,23.08,16.09,14]hentriaconta-1(29),2(31),3,9(14),10,12,15,19(30),20,22,27-undecaene-18,26-dione]	–	–	100 to 1000
COc1ccc2cc1-c1ccc(=O)n(n1)Cc1cccc(c1)C(=O)Nc1nc3ccccc3n1C2 [Compound 15, 3-methoxy-8,15,17,25,29-pentaazahexacyclo[23.3.1.1^2,6.1^19,23.0^8,16.0^9,14]hentriaconta-1(29),2(31),3,5,9(14),10,12,15,19(30),20,22,27-dodecaene-18,26-dione]	< 100	< 100	–
COc1ccc2cc1Cn1c(nc3ccccc31)NC(=O)c1cccc(c1)Cn1nc-2ccc1=O [Compound 19, 5-methoxy-8,15,17,25,29-pentaazahexacyclo[23.3.1.1^2,6.1^19,23.0^8,16.0^9,14]hentriaconta-1(29),2(31),3,5,9(14),10,12,15,19(30),20,22,27-dodecaene-18,26-dione]	100 to 1000	< 100	–
COc1cc2nc3n(c2cc1OC)CCn1cc(cn1)-c1ccc(=O)n(n1)Cc1cccc(c1)C(=O)N3 [Compound 22]	< 100	< 100	–
NCCc1ccc2c(c1)nc1n2Cc2cccc(c2)-c2ccc(=O)n(n2)Cc2cccc(c2)C(=O)N1 [Compound 23]	< 100	< 100	–
CC1c2cccc(c2)C(=O)Nc2nc3ccccc3n2Cc2cccc(c2)-c2ccc(=O)n1n2 (stereo not drawn) [Compound 24]	< 100	< 100	–
Cc1cc(=O)n2nc1-c1cnn(c1)CCn1c(nc3ccccc31)NC(=O)c1cccc(c1)C2 [Compound 26]	< 100	< 100	–
O=C1Nc2nc3cc(CN4CCOCC4)ccc3n2Cc2cccc(c2)-c2ccc(=O)n(n2)Cc2cccc1c2 [Compound 27]	< 100	< 100	–
Cc1nn2c(C)c1-c1ccc(=O)n(n1)Cc1cccc(c1)C(=O)Nc1nc3ccccc3n1CC2 [Compound 28]	100 to 1000	100 to 1000	–
COc1ccc2c(c1)nc1n2Cc2cccc(c2)-c2ccc(=O)n(n2)Cc2cccc(c2)C(=O)N1 [Compound 29]	< 100	< 100	–
Cc1cc(=O)n2nc1OCCC(O)Cn1c(nc3ccccc31)NC(=O)c1cccc(c1)C2 (stereo not drawn) [Compound 30]	< 100	< 100	–
O=C1Nc2nc3cc(O)ccc3n2Cc2cccc(c2)-c2ccc(=O)n(n2)Cc2cccc1c2 [Compound 31]	< 100	100 to 1000	–
COc1ccc2c(c1)nc1n2CCn2cc(cn2)-c2ccc(=O)n(n2)Cc2cccc(c2)C(=O)N1 [Compound 33]	< 100	< 100	–
O=C1Nc2nc3ccccc3n2C/C=C\COc2ccc(=O)n(n2)Cc2cccc1c2 [Compound 34]	< 100	< 100	–
COc1ccc2c(c1)nc1n2CC(O)CCOc2ccc(=O)n(n2)Cc2cccc(c2)C(=O)N1 (stereo not drawn) [Compound 35]	< 100	< 100	–
CC[C@H]1c2cccc(c2)C(=O)Nc2nc3ccccc3n2Cc2cccc(c2)-c2ccc(=O)n1n2 [Compound 36a, 24-ethyl-8,15,17,26,29-pentaazahexacyclo[23.3.1.1^2,6.1^19,23.0^8,16.0^9,14]hentriaconta-1(29),2(31),3,5,9(14),10,12,15,19,21,23(30),27-dodecaene-18,26-dione]	< 100	< 100	–
CC[C@@H]1c2cccc(c2)C(=O)Nc2nc3ccccc3n2Cc2cccc(c2)-c2ccc(=O)n1n2 [Compound 36b, 24-ethyl-8,15,17,26,29-pentaazahexacyclo[23.3.1.1^2,6.1^19,23.0^8,16.0^9,14]hentriaconta-1(29),2(31),3,5,9(14),10,12,15,19,21,23(30),27-dodecaene-18,26-dione]	< 100	100 to 1000	–
COc1ccc2cc1CCn1c(nc3ccccc31)NC(=O)c1cccc(c1)Cn1nc-2ccc1=O [Compound 37]	< 100	< 100	–
O=C1Nc2nc3ccccc3n2CCc2cc(ccc2O)-c2ccc(=O)n(n2)Cc2cccc1c2 [Compound 38]	< 100	< 100	–
